Earlier results in patent US4820521A, “Sustained absorption pharmaceutical composition” (priority 1983, dated 1989).

Legend:
[1] = versus caffeine
[2] = test system: involuntary muscle; conditions: versus theobromine and caffeine
[3] = human, in vivo

**Q.** With `Cn1c(=O)c2[nH]cnc2n(C)c1=O` [Theophylline, 1,3-dimethylxanthine] as the molecule, how does the “diuretic action (in words)” value [1] read?
**A.** The value was “stronger than that of caffeine is of short duration”.

**Q.** What about the “relaxant of involuntary muscle (in words)” value [2] of the same molecule?
**A.** Its value is “more powerful relaxant of involuntary muscle than either theobromine or caffeine”.

**Q.** What about the “minimum effective plasma concentration” value (in vivo) of the same molecule?
**A.** Its value is “about 5 mcg/ml”.

**Q.** And the average therapeutic concentration (plasma)?
**A.** The average therapeutic concentration was “about 10 mcg/ml”.

**Q.** What about the “therapeutic range of concentration” value (plasma) of the same molecule?
**A.** The value was 10 to 20 µg/mL.

**Q.** What about the “toxicity of levels above 20 mcg/ml” value (plasma levels above 20 mcg/ml) of the same molecule?
**A.** The value was “toxic”.

**Q.** What about the “effect of levels below 10 mcg/ml” value (plasma levels below 10 mcg/ml) of the same molecule?
**A.** The value was “ineffective”.

**Q.** What about the apparent biological half-life [3] of the same molecule?
**A.** The apparent biological half-life was 4-9 hours.
